Data reported in patent US20190358264A1, “METHODS OF TREATING DISEASES ASSOCIATED WITH ILC2 CELLS” (Limm Therapeutics, SA, priority 2016, published 2019).

Tested on: ILC2s
Assay: In vitro activation of purified ILC2s, type 2 cytokine protein by intracellular staining
Format: cell-based, mouse
Procedure: FIGS. 10a-10d: FIG. 10a, Ki67 expression in intestinal ILC2s after an overnight in vitro stimulation with NmU23 alone (100 ng/mL, Phoenix Pharmaceutical) or NmU23 together with the survival cytokines Interleukin (IL)-2 and/or IL-7 (10 ng/mL). FIG. 10b, Ki67 expression in intestine ILC2 after in vivo administration of NmU23 (4 g/day during 2 days). n=5. FIG. 10c, ILC2-derived type 2 cytokines (IL-5, IL-13 and Amphiregulin (Areg)) in sorted intestine ILC2 after an overnight stimulation with NmU23, mouse recombinant IL-25 or IL-33 (R&D) (10, 50 and 100 ng/mL). Negative control: unstimulated ILC2, Positive control: ILC2 activated with phorbol 12-myristate 13-acetate (PMA, 50 ng/ml) plus ionomycin (500 ng/ml). n=3. FIG. 10d, Dot plots representative of the cytokine production with increasing dose of NmU23, rIL-25 and rIL-33. *P<0.05; **P<0.01; ***P<0.001; ****P<0.0001; ns not significant.
For in vitro experiments, purified lung and small intestine lamina propria ILC2s were FBS starved for 2 hours prior to stimulation and cultured in complete RPMI (supplemented with 10% foetal bovine serum (FBS), 1% hepes, sodium pyruvate, glutamine, streptomycin and penicillin) at 37° C. For mRNA analysis, ILC2s were stimulated overnight with recombinant mouse Neuromedin U 23 peptide (NmU23, 100 ng/mL; Phoenix pharmaceuticals). Both NmU23-stimulated and control ILC2s were cultured in the presence of IL-2 and IL-7 (10 ng/mL; Peprotech). ILC2s were lysed using RLT buffer (Qiagen). For cytokine protein analysis, ILC2s were incubated exclusively with brefeldin A (eBioscience) for 12 hours prior to intracellular staining. For in vivo experiments, B6 mice were injected intraperitoneal with NmU23 peptide (2 g/day) during Nippostrongylus brasiliensis infection or with a single dose of NmU23 (20 μg) and analyzed after 8 hours. Control mice were treated with PBS alone.
Intracellular staining was performed using IC fixation/permeabilization kit (eBioscience). Flow cytometry analysis and cell sorting were performed using BD LSRFORTESSA and BD FACSAria flow cytometers (BD Biosciences). […]

Substance: Neuromedin U (FKAEYQSPSVGQSKGYFLFRPRN) [NmU]
- up-regulation of innate type 2 cytokines relative to PMA-ionomycin positive control (PMA 50 ng/ml plus ionomycin 500 ng/ml, sorted intestine ILC2, overnight): comparable to the effects observed with PMA-ionomycin activation
- expression of innate IL-5 and IL-13 compared to IL-33 and IL-25 (sorted intestine ILC2, overnight, 10, 50 and 100 ng/mL (FIGS. 10c,10d)): prompt, and very robust expression
